Test results as given in US9175003B2, “Substituted azoanthracene derivatives and intermediates for preparation thereof” (TransTech Pharma, LLC, priority 2009, dated 2015).

Molecular target: human GLP-1 receptor (Homo sapiens (Human), UniProt P43220)
Settings: read-out: Mean EC50; cAMP, HTRF detection, 30 min at 37° C., HEK-293 cells expressing cloned human GLP-1 receptor

Sequence of human GLP-1 receptor (P43220 24-463): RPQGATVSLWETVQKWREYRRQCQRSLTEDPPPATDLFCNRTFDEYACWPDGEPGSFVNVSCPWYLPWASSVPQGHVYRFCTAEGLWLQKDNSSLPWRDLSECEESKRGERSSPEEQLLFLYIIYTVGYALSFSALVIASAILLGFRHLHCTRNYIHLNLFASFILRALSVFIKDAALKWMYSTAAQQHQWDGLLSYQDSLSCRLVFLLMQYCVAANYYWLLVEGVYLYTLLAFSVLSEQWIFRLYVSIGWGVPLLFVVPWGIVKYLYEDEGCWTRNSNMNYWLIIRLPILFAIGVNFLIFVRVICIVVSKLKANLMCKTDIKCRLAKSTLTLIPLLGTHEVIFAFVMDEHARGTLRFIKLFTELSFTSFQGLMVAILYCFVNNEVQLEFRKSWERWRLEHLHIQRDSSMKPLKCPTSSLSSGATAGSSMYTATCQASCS

Compound	EC50 [nM]
Cc1nccc(Oc2ccc(C[C@H](NC(=O)[C@@H]3Cc4cc5c(cc4CN3C(=O)OC(C)(C)C)O[C@@H](c3ccc(OCc4ccc(Cl)c(Cl)c4)cc3)CO5)C(=O)O)cc2)c1C [Example 403, (3S,8S)-8-{(S)-1-Carboxy-2-[4-(2,3-dimethyl-pyridin-4-yloxy)-phenyl]-ethylcarbamoyl}-3-[4-(3,4-dichloro-benzyloxy)-phenyl]-2,3,8,9-tetrahydro-6H-[1,4]dioxino[2,3-g]isoquinoline-7-carboxylic acid tert-butyl ester]	138
Cc1nc(N)sc1S(=O)(=O)N1Cc2cc3c(cc2C[C@H]1C(=O)N[C@@H](Cc1ccc(-c2ccc(C#N)cc2)cc1)C(=O)O)OC[C@H](c1ccc(OCc2ccc(Cl)c(Cl)c2)cc1)O3 [Example 81, (S)-2-({(3S,8S)-7-(2-Amino-4-methyl-thiazole-5-sulfonyl)-3-[4-(3,4-dichloro-benzyloxy)-phenyl]-2,3,6,7,8,9-hexahydro-[1,4]dioxino[2,3-g]isoquinoline-8-carbonyl}-amino)-3-(4′-cyano-biphenyl-4-yl)-propionic acid]	326
Cc1nc(C(=O)N2Cc3cc4c(cc3C[C@H]2C(=O)N[C@@H](Cc2ccc(-c3ccnc(C)c3C)cc2)C(=O)O)OC[C@H](c2ccc(OCc3ccc(Cl)c(Cl)c3)cc2)O4)co1 [Example 431, (S)-2-{[(3S,8S)-3-[4-(3,4-Dichloro-benzyloxy)-phenyl]-7-(2-methyl-oxazole-4-carbonyl)-2,3,6,7,8,9-hexahydro-[1,4]dioxino[2,3-g]isoquinoline-8-carbonyl]-amino}-3-[4-(2,3-dimethyl-pyridin-4-yl)-phenyl]-propionic acid]	31
Cc1nccc(-c2ccc(C[C@H](NC(=O)[C@@H]3Cc4cc5c(cc4CN3C(=O)N3CCCCC3)O[C@@H](c3ccc(OCc4ccc(Cl)c(Cl)c4)cc3)CO5)C(=O)O)cc2)c1C [Example 312, (S)-2-{[(3S,8S)-3-[4-(3,4-Dichloro-benzyloxy)-phenyl]-7-(piperidine-1-carbonyl)-2,3,6,7,8,9-hexahydro-[1,4]dioxino[2,3-g]isoquinoline-8-carbonyl]-amino}-3-[4-(2,3-dimethyl-pyridin-4-yl)-phenyl]-propionic acid]	32
CC(=O)Nc1ccc(S(=O)(=O)N2Cc3cc4c(cc3C[C@H]2C(=O)N[C@@H](Cc2ccc(-c3ccc(C#N)cc3)cc2)C(=O)O)OCC(c2ccc(OCc3ccc(Cl)c(Cl)c3)cc2)O4)c(C)c1 (stereo in doubt) [Example 111, (S)-2-({(S)-7-(4-Acetylamino-2-methyl-benzenesulfonyl)-3-[4-(3,4-dichloro-benzyloxy)-phenyl]-2,3,6,7,8,9-hexahydro-[1,4]dioxino[2,3-g]isoquinoline-8-carbonyl}-amino)-3-(4′-cyano-biphenyl-4-yl)-propionic acid]	44
Cc1nccc(Oc2ccc(C[C@H](NC(=O)[C@@H]3Cc4cc5c(cc4CN3C(=O)NC(C)C)O[C@@H](c3ccc(OCc4ccc(Cl)c(Cl)c4)cc3)CO5)C(=O)O)cc2)c1C [Example 342, (S)-2-({(3S,8S)-3-[4-(3,4-Dichloro-benzyloxy)-phenyl]-7-isopropylcarbamoyl-2,3,6,7,8,9-hexahydro-[1,4]dioxino[2,3-g]isoquinoline-8-carbonyl}-amino)-3-[4-(2,3-dimethyl-pyridin-4-yloxy)-phenyl]-propionic acid]	204
Cc1nc(NCCC(C)C)sc1S(=O)(=O)N1Cc2cc3c(cc2C[C@H]1C(=O)N[C@@H](Cc1ccc(-c2ccc(C#N)cc2)cc1)C(=O)O)OCC(c1ccc(OCc2ccc(Cl)c(Cl)c2)cc1)O3 (stereo in doubt) [Example 110, (S)-3-(4′-Cyano-biphenyl-4-yl)-2-({(S)-3-[4-(3,4-dichloro-benzyloxy)-phenyl]-7-[4-methyl-2-(3-methyl-butylamino)-thiazole-5-sulfonyl]-2,3,6,7,8,9-hexahydro-[1,4]dioxino[2,3-g]isoquinoline-8-carbonyl}-amino)-propionic acid]	356
Cc1nc(C(=O)N2Cc3cc4c(cc3C[C@H]2C(=O)N[C@@H](Cc2ccc(-c3ccnc(C)c3C)cc2)C(=O)O)OC[C@H](c2ccc(OCc3cccc(Cl)c3F)cc2)O4)c(C)o1 [Example 359, (S)-2-{[(3S,8S)-3-[4-(3-Chloro-2-fluoro-benzyloxy)-phenyl]-7-(2,5-dimethyl-oxazole-4-carbonyl)-2,3,6,7,8,9-hexahydro-[1,4]dioxino[2,3-g]isoquinoline-8-carbonyl]-amino}-3-[4-(2,3-dimethyl-pyridin-4-yl)phenyl]-propionic acid]	117

Other lines, results leading:

EC50 [nM]	Compound
116	CC[C@@H](c1ccccc1)N1Cc2cc3c(cc2C[C@H]1C(=O)N[C@@H](Cc1ccc(-c2ccnc(C)c2C)cc1)C(=O)O)OC[C@H](c1ccc(OCc2cccnc2)cc1)O3 [Example 169, (S)-3-[4-(2,3-Dimethyl-pyridin-4-yl)-phenyl]-2-({(3S,8S)-7-((S)-1-phenyl-propyl)-3-[4-(pyridin-3-ylmethoxy)-phenyl]-2,3,6,7,8,9-hexahydro-[1,4]dioxino[2,3-g]isoquinoline-8-carbonyl}-amino)-propionic acid]
18	Cc1ccccc1C(=O)N1Cc2cc3c(cc2C[C@H]1C(=O)N[C@@H](Cc1ccc(-c2ccnc(C)c2C)cc1)C(=O)O)OC[C@H](c1ccc(OCc2ccc(Cl)c(Cl)c2)cc1)O3 [Example 151, (S)-2-{[(3S,8S)-3-[4-(3,4-Dichloro-benzyloxy)-phenyl]-7-(2-methyl-benzoyl)-2,3,6,7,8,9-hexahydro-[1,4]dioxino[2,3-g]isoquinoline-8-carbonyl]-amino}-3-[4-(2,3-dimethyl-pyridin-4-yl)-phenyl]-propionic acid]
14	CC[C@@H](c1ccccc1)N1Cc2cc3c(cc2C[C@H]1C(=O)N[C@@H](Cc1ccc(-c2cc(C)nc(C)c2)cc1)C(=O)O)OC[C@H](c1ccc(OCc2ccc(Cl)c(Cl)c2)cc1)O3 [Example 188, (S)-2-{[(3S,8S)-3-[4-(3,4-Dichloro-benzyloxy)-phenyl]-7-((S)-1-phenyl-propyl)-2,3,6,7,8,9-hexahydro-[1,4]dioxino[2,3-g]isoquinoline-8-carbonyl]-amino}-3-[4-(2,6-dimethyl-pyridin-4-yl)-phenyl]-propionic acid]
327	Cc1nccc(-c2ccc(C[C@H](NC(=O)[C@@H]3Cc4cc5c(cc4CN3C(=O)C(C)C)O[C@@H](c3ccc(OCc4ccc(Cl)c(Cl)c4)cc3)CO5)C(=O)O)cc2)c1C [Example 153, (S)-2-({(3S,8S)-3-[4-(3,4-Dichloro-benzyloxy)-phenyl]-7-isobutyryl-2,3,6,7,8,9-hexahydro-[1,4]dioxino[2,3-g]isoquinoline-8-carbonyl}-amino)-3-[4-(2,3-dimethyl-pyridin-4-yl)-phenyl]-propionic acid]
82	Cc1nccc(-c2ccc(C[C@H](NC(=O)[C@@H]3Cc4cc5c(cc4CN3C(=O)N[C@@H](C)c3ccccc3)O[C@@H](c3ccc(OCc4ccc(Cl)c(Cl)c4)cc3)CO5)C(=O)O)cc2)c1C [Example 239, (S)-2-{[(3S,8S)-3-[4-(3,4-Dichloro-benzyloxy)-phenyl]-7-((S)-1-phenyl-ethylcarbamoyl)-2,3,6,7,8,9-hexahydro-[1,4]dioxino[2,3-g]isoquinoline-8-carbonyl]-amino}-3-[4-(2,3-dimethyl-pyridin-4-yl)-phenyl]-propionic acid]
115	Cc1nccc(Oc2ccc(C[C@H](NC(=O)[C@@H]3Cc4cc5c(cc4CN3C(=O)N[C@@H](C)c3ccccc3)O[C@@H](c3ccc(OCc4ccc(Cl)c(Cl)c4)cc3)CO5)C(=O)O)cc2)c1C [Example 335, (S)-2-{[(3S,8S)-3-[4-(3,4-Dichloro-benzyloxy)-phenyl]-7-((S)-1-phenyl-ethylcarbamoyl)-2,3,6,7,8,9-hexahydro-[1,4]dioxino[2,3-g]isoquinoline-8-carbonyl]-amino}-3-[4-(2,3-dimethyl-pyridin-4-yloxy)-phenyl]-propionic acid]
203	CC[C@@H](c1ccccc1)N1Cc2cc3c(cc2C[C@H]1C(=O)N[C@@H](Cc1ccc(-c2ccnc(C)c2C)cc1)C(=O)O)OC[C@H](c1ccc(Oc2ccccc2)cc1)O3 [Example 424, (S)-3-[4-(2,3-Dimethyl-pyridin-4-yl)-phenyl]-2-{[(3S,8S)-3-(4-phenoxy-phenyl)-7-((S)-1-phenyl-propyl)-2,3,6,7,8,9-hexahydro-[1,4]dioxino[2,3-g]isoquinoline-8-carbonyl]-amino}-propionic acid]
262	CC[C@@H](c1ccccc1)N1Cc2cc3c(cc2C[C@H]1C(=O)N[C@@H](Cc1ccc(-c2cnn(C)c2)cc1)C(=O)O)OC[C@H](c1ccc(OCc2ccc(Cl)c(Cl)c2)cc1)O3 [Example 197, (S)-2-{[(3S,8S)-3-[4-(3,4-Dichloro-benzyloxy)-phenyl]-7-((S)-1-phenyl-propyl)-2,3,6,7,8,9-hexahydro-[1,4]dioxino[2,3-g]isoquinoline-8-carbonyl]-amino}-3-[4-(1-methyl-1H-pyrazol-4-yl)-phenyl]-propionic acid]
11	CC[C@@H](c1ccccc1)N1Cc2cc3c(cc2C[C@H]1C(=O)N[C@@H](Cc1ccc(-c2cc(C)ncc2C)cc1)C(=O)O)OC[C@H](c1ccc(OCc2ccc(Cl)c(Cl)c2)cc1)O3 [Example 190, (S)-2-{[(3S,8S)-3-[4-(3,4-Dichloro-benzyloxy)-phenyl]-7-((S)-1-phenyl-propyl)-2,3,6,7,8,9-hexahydro-[1,4]dioxino[2,3-g]isoquinoline-8-carbonyl]-amino}-3-[4-(2,5-dimethyl-pyridin-4-yl)-phenyl]-propionic acid]
112	Cc1nccc(-c2ccc(C[C@H](NC(=O)[C@@H]3Cc4cc5c(cc4CN3C(=O)N[C@H](C)c3ccccc3)O[C@@H](c3ccc(OCc4cccc(Cl)c4Cl)cc3)CO5)C(=O)O)cc2)c1C [Example 369, (S)-2-{[(3S,8S)-3-[4-(2,3-Dichloro-benzyloxy)-phenyl]-7-((R)-1-phenyl-ethylcarbamoyl)-2,3,6,7,8,9-hexahydro-[1,4]dioxino[2,3-g]isoquinoline-8-carbonyl]-amino}-3-[4-(2,3-dimethyl-pyridin-4-yl)-phenyl]-propionic acid]
